# According to patent US7737155B2, “Nitrogen-containing heterocyclic compounds and methods of use thereof” (Schering Corporation, priority 2005, dated 2010):
# Target: recombinant human nicotinic acid receptor (NAR) (Homo sapiens, UniProt Q8TDS4)
# Assay: Nicotinic Acid Receptor Assay: inhibition of forskolin-stimulated cAMP accumulation in CHO cells (MesoScale Discovery cAMP kit)
# Format: cell-based
# Conditions: CHO cells expressing recombinant human NAR; forskolin-stimulated cAMP; read-out: NA EC50 camp
# Method: The nicotinic acid receptor agonist activity of the inventive compounds was determined by following the inhibition of forskolin-stimulated cAMP accumulation in cells using the MesoScale Discovery cAMP detection kit following the manufacture's protocol. Briefly, Chinese Hamster Ovary (CHO) cells expressing recombinant human nicotinic acid receptor (NAR) were harvested enzymatically, washed 1× in phosphate buffered saline (PBS) and resuspended in PBS containing 0.5 mM IBMX at 3×10^6 cells/mL. Ten μL of cell suspension was added to each well of a 384-well plate which contained 10 μL of test compounds. Test compounds were diluted with PBS containing 6 μM of forskolin. Plates were incubated for 30 minutes at room temperature after the addition of cells. Lysis buffer containing cAMP-Tag was added to each well (10 μL/well) as per the manufacturer's protocol. Plates were then incubated from 45 minutes to overnight. Prior to reading, 10 μL of read buffer was added to each well, and the plate was read in a Sector 6000 plate imager. The signal was converted to cAMP concentration using a standard curve run on each plate.
# recombinant human nicotinic acid receptor (NAR), sequence (Q8TDS4 whole entry): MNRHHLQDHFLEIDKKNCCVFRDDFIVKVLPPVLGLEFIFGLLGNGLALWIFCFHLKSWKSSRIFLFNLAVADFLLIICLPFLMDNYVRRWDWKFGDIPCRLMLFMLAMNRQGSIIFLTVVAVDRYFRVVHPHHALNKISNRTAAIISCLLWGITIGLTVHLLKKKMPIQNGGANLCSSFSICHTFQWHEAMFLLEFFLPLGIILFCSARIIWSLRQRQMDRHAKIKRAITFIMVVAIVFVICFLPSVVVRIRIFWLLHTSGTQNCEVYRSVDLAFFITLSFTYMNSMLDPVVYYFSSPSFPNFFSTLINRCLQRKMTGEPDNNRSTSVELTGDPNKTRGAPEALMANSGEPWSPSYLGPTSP
row,Structure (SMILES),EC50 [nM]
1,CCc1cc(=O)oc2nc(OCc3ccc(C)c(C(F)(F)F)c3)[nH]c(=O)c12 [Compound 516],> 1000
2,CCc1cc(=O)oc2nc(OCc3ccccc3-c3ccc(F)cc3)[nH]c(=O)c12 [Compound 510],> 1000
3,O=c1[nH]c(=O)c2c(CCC34CC5CC(CC(C5)C3)C4)cc(=O)oc2[nH]1 [Compound 215],> 1000
4,O=c1[nH]c(=O)c2c(Cc3cccc4ccccc34)cc(=O)oc2[nH]1 [Compound 265],> 1000
5,CSCCCc1cc(=O)oc2[nH]c(=O)[nH]c(=O)c12 [Compound 225],0.001 to 100
6,CCc1cc(=O)oc2nc(OCCOc3cccc(C)c3)[nH]c(=O)c12 [Compound 598],100 to 1000
7,O=c1[nH]c(=O)c2c(CC3CCC4CC34)cc(=O)oc2[nH]1 (centres unmarked) [Compound 235],0.001 to 100
8,CC1CC(c2cc(=O)oc3[nH]c(=O)[nH]c(=O)c23)C1 (centres unmarked) [Compound 296],100 to 1000
9,C#CCCCCc1cc(=O)oc2[nH]c(=O)[nH]c(=O)c12 [Compound 226],0.001 to 100
10,CCc1cc(=O)oc2nc(OCc3ccc(-c4ccccc4)cc3F)[nH]c(=O)c12 [Compound 518],100 to 1000
11,O=c1cc(CCc2cccs2)c2c(=O)n(C3CCC3)c(=O)[nH]c2o1 [Compound 282],100 to 1000
12,CCc1cc(=O)oc2nc(OCc3ncccc3C)[nH]c(=O)c12 [Compound 556],> 1000
13,CCc1cc(=O)oc2nc(OCc3cccc(-c4ccc(F)c(Cl)c4)c3)[nH]c(=O)c12 [Compound 558],> 1000
14,COC(=O)CCc1cc(=O)oc2[nH]c(=O)[nH]c(=O)c12 [Compound 216],100 to 1000
15,Cn1c(=O)[nH]c(=O)c2c(CCC3CC3)cc(=O)oc21 [Compound 275],100 to 1000
16,CCc1cc(=O)oc2nc(OCCOc3cc(C(F)(F)F)ccn3)[nH]c(=O)c12 [Compound 602],100 to 1000
17,CCc1cc(=O)oc2nc(OCc3cccc(-c4ccccc4Cl)c3)[nH]c(=O)c12 [Compound 564],100 to 1000
18,CCc1cc(=O)oc2nc(OCc3ccccc3-c3cccc(C)c3)[nH]c(=O)c12 [Compound 550],> 1000
19,O=c1cc(CCCCc2cccs2)c2c(=O)n(C3CCC3)c(=O)[nH]c2o1 [Compound 280],> 1000

row,Structure (SMILES),EC50 [nM]
1,Cn1c(=O)[nH]c2oc(=O)cc(CCC3CC3)c2c1=O [Compound 276],100 to 1000
2,O=c1[nH]c(=O)c2c(CCCC3CCC3)cc(=O)oc2[nH]1 [Compound 286],0.001 to 100
3,CCc1cc(=O)oc2nc(OCc3cc(C)n(C)n3)[nH]c(=O)c12 [Compound 530],100 to 1000
4,CCc1cc(=O)oc2nc(OCc3ccc(-c4cccc(C(F)(F)F)c4)cc3F)[nH]c(=O)c12 [Compound 573],100 to 1000
5,CCc1cc(=O)oc2nc(OCc3ccc(-c4ccncc4)cc3F)[nH]c(=O)c12 [Compound 574],100 to 1000
6,CC/C=C\CCc1cc(=O)oc2[nH]c(=O)n(CC3CC3)c(=O)c12 [Compound 254],> 1000
7,CCc1cc(=O)oc2nc(OCc3sccc3-n3cccc3)[nH]c(=O)c12 [Compound 533],> 1000
8,CCCCc1c(-c2ccccc2)c(=O)oc2[nH]c(=O)[nH]c(=O)c12 [Compound 292],100 to 1000
9,CC(C)CCc1cc(=O)oc2[nH]c(=O)n(C3CCC3)c(=O)c12 [Compound 245],0.001 to 100
10,CCc1cc(=O)oc2nc(OCCc3cccc4ccccc34)[nH]c(=O)c12 [Compound 537],> 1000
11,CCc1c(-c2ccccc2)c(=O)oc2[nH]c(=O)n(C3CCC3)c(=O)c12 [Compound 203],> 1000
12,O=c1[nH]c(=O)c2c(CCCOCC3CC3)cc(=O)oc2[nH]1 [Compound 273],100 to 1000
13,CCc1cc(=O)oc2nc(OCc3ncoc3-c3ccccc3)[nH]c(=O)c12 [Compound 540],100 to 1000
14,O=c1[nH]c(=O)c2c(CC3CCC(F)(F)CC3)cc(=O)oc2[nH]1 [Compound 223],0.001 to 100
15,O=c1[nH]c(=O)c2c(CCCc3cn(Cc4ccccc4)nn3)cc(=O)oc2[nH]1 [Compound 251],100 to 1000
16,O=c1[nH]c(=O)c2c(CCc3cccs3)cc(=O)oc2[nH]1 [Compound 229],0.001 to 100
17,N#Cc1cccc(Cc2cc(=O)oc3[nH]c(=O)[nH]c(=O)c23)c1 [Compound 231],> 1000
18,CCc1cc(=O)oc2nc(OCCS(C)(=O)=O)[nH]c(=O)c12 [Compound 588],> 1000

# More lines, now with the values ahead:
row,EC50 [nM],Structure (SMILES)
1,100 to 1000,CCCCc1c(-c2ccc(C(F)(F)F)cc2)c(=O)oc2[nH]c(=O)[nH]c(=O)c12 [Compound 708]
2,100 to 1000,CCc1cc(=O)oc2nc(OCc3ccncc3Cl)[nH]c(=O)c12 [Compound 629]
3,0.001 to 100,CCc1cc(=O)oc2nc(OCCOCc3csc4ccccc34)[nH]c(=O)c12 [Compound 662]
4,100 to 1000,CCc1cc(=O)oc2nc(OCc3cc(Br)no3)[nH]c(=O)c12 [Compound 649]
5,> 1000,Cc1cccc(COc2nc3oc(=O)cc(Cc4ccccc4)c3c(=O)[nH]2)n1 [Compound 609]
6,> 1000,CCc1cc(=O)oc2nc(OCc3cc4c(C)nn(C)c4s3)[nH]c(=O)c12 [Compound 646]
7,100 to 1000,CCOC(=O)NOc1nc2oc(=O)cc(CCC3CC3)c2c(=O)[nH]1 [Compound 696]
8,100 to 1000,CCc1cc(=O)oc2nc(OCc3ccncc3F)[nH]c(=O)c12 [Compound 625]
9,100 to 1000,CCc1cc(=O)oc2nc(OCc3cccc(N(C)C)c3)[nH]c(=O)c12 [Compound 619]
10,> 1000,Cc1cc(=O)oc2nc(OCc3csc4ccccc34)[nH]c(=O)c12 [Compound 690]
11,> 1000,CCc1cc(=O)oc2nc(O[C@H](C)C#CC(=O)OCc3ccccc3)[nH]c(=O)c12 [Compound 635]
12,> 1000,CCc1cc(=O)oc2nc(OCc3ccc(-n4cncn4)cc3)[nH]c(=O)c12 [Compound 628]
13,100 to 1000,COCC#CCOc1nc2oc(=O)cc(Cc3ccc(F)cc3)c2c(=O)[nH]1 [Compound 661]
14,> 1000,CCCCc1cc(=O)oc2nc(OCc3ccccn3)[nH]c(=O)c12 [Compound 682]
15,0.001 to 100,CCc1cc(=O)oc2nc(OCC#Cc3ccccc3Cl)[nH]c(=O)c12 [Compound 623]
16,100 to 1000,O=c1cc(Cc2ccccc2)c2c(=O)[nH]c(OCc3ccccc3F)nc2o1 [Compound 616]
17,100 to 1000,CCc1cc(=O)oc2nc(OCc3c(-c4c(Cl)cccc4Cl)noc3C)[nH]c(=O)c12 [Compound 647]
18,100 to 1000,CCc1cc(=O)oc2nc(OC(C)COC)[nH]c(=O)c12 (centres unmarked) [Compound 607]
19,100 to 1000,CCc1cc(=O)oc2nc(OCc3cnc(Br)s3)[nH]c(=O)c12 [Compound 608]
20,100 to 1000,CCc1cc(=O)oc2nc(OCc3ccccc3-c3cccc(CO)c3)[nH]c(=O)c12 [Compound 634]
21,> 1000,CCCCc1c(-c2ccc(C#N)cc2)c(=O)oc2[nH]c(=O)[nH]c(=O)c12 [Compound 709]
22,> 1000,CCc1cc(=O)oc2nc(OCCOC3CCCC3)[nH]c(=O)c12 [Compound 606]

# Same assay, conditions: NA EC50 camp (nM), CHO cells expressing recombinant human NAR; forskolin-stimulated cAMP
row,Structure (SMILES),EC50 [nM]
1,C#CCOc1nc2oc(=O)cc(CC)c2c(=O)[nH]1 [Compound 555],100 to 1000
2,CCc1cc(=O)oc2nc(OCC#CC3CC3)[nH]c(=O)c12 [Compound 589],0.001 to 100
3,CCc1cc(=O)oc2nc(OCC#CC3CCCCC3)[nH]c(=O)c12 [Compound 638],100 to 1000

# Same assay, conditions: NA EC50 camp, inhibition of forskolin-stimulated cAMP accumulation, CHO cells expressing recombinant human NAR
row,Structure (SMILES),EC50 [nM]
1,O=c1cc(CCC2CCC2)c2c(=O)[nH]c(C(F)F)nc2o1 [Compound 748],286
2,O=c1cc(CCC2CC2)c2c(=O)[nH]c(C(F)F)nc2o1 [Compound 752],248

# Same assay, conditions: inhibition of forskolin-stimulated cAMP accumulation, CHO cells expressing recombinant human NAR; read-out: NA EC50 camp
row,Structure (SMILES),EC50 [nM]
1,O=c1[nH]c(=O)c2c(CCC3CCCCC3)cc(=O)oc2[nH]1 [Compound 124],78.5
2,CCCCc1c(-c2ccccc2)c(=O)oc2[nH]c(=O)[nH]c(=O)c12 [Compound 292],300
3,O=c1[nH]c(=O)c2c(CC3CCC(F)(F)CC3)cc(=O)oc2[nH]1 [Compound 223],26.5

# Results, then the molecule that gave them:
row,EC50 [nM],Structure (SMILES)
1,308,CCCCc1cc(=O)oc2[nH]c(=O)n(CCF)c(=O)c12 [Compound 818]
2,219,CCc1cc(=O)oc2nc(OCC#CCCOC)[nH]c(=O)c12 [Compound 726]
3,156,CCC#CC(C)Oc1nc2oc(=O)cc(CC)c2c(=O)[nH]1 (centres unmarked) [Compound 730]
4,226,CCCC#CCOc1nc2oc(=O)cc(CCC3CC3)c2c(=O)[nH]1 [Compound 721]
5,9150,CCCCc1cc(=O)oc2c1c(=O)[nH]c(=O)n2OCC [Compound 778]
6,> 10000,CCCCc1cc(=O)oc2c1c(=O)[nH]c(=O)n2N1CCOCC1 [Compound 796]
7,49.9,CCc1cc(=O)oc2nc(OCC#CC(C)O)[nH]c(=O)c12 (centres unmarked) [Compound 729]
8,38.5,CCCCc1cc(=O)oc2[nH]c(=O)nc(OCF)c12 [Compound 788]
9,48.5,COn1c(=O)[nH]c(=O)c2c(CCC3CCCC3)cc(=O)oc21 [Compound 773]
10,2850,CCCCc1cc(=O)oc2[nH]c(=O)n(OCC)c(=O)c12 [Compound 779]
11,187,CCCCc1cc(=O)oc2nc(CF)[nH]c(=O)c12 [Compound 809]
12,142,CCCCc1cc(=O)oc2[nH]c(=O)n(CC(F)F)c(=O)c12 [Compound 821]
13,690,CCCCc1cc(=O)oc2[nH]c(=O)nc(OCCF)c12 [Compound 827]
14,28,COn1c(=O)[nH]c2oc(=O)cc(CCCC3CC3)c2c1=O [Compound 774]
15,19,COn1c(=O)[nH]c2oc(=O)cc(CCC3CCC3)c2c1=O [Compound 769]
16,1230,O=c1cc(CCC2CCCC2)c2c(=O)[nH]c(CF)nc2o1 [Compound 747]
